Measurements from patent US9226929B2, “Pharmaceutically active disubstituted triazine derivatives” (Bayer Intellectual Property GMBH, priority 2011, dated 2016).

Columns and labels:
CDK9/Cyclin K = target: T1, CDK9/Cyclin K (Homo sapiens, UniProt P50750); assay: LanthaScreen Eu Kinase Binding Assay, CDK9/Cyclin K; settings: tracer 236, read-out: CDK9/Cyclin K (activity range), Kd
T1 construct: His; purchased Invitrogen
Procedure: (§1) This protocol describes how the LanthaScreen Eu Kinase Binding Assay was performed to determine dissociation constants (Kd) of compounds of general formula (I) and CDK/Cyclin complexes. The principle behind this assay is based upon the binding and displacement of an Alexa Fluor 647-labeled tracer, which binds to the active site of kinases. Binding of the tracer to the kinase is detected using a Eu-labeled antibody. Simultaneous binding of both the tracer and antibody to the kinase gives rise to a FRET-signal. Binding of an inhibitor to the kinase competes for binding with the tracer, resulting in a loss of FRET.
(§2) The compounds of general formula (I) summarized in Table 1 were diluted from a 10 mM DMSO stock solution 1:10 in a total volume of 15 μL DMSO. This compound predilution was then serial diluted 1:3 over 8 steps in DMSO and briefly spun down. Each compound solution was now diluted 1:33.33 in kinase buffer (HEPES: 20 mM, pH: 8.0; MgCl2: 10 mM; DTT: 1 mM; Brij-35: 0,01%), mixed thoroughly and spun down. For every sample, 5 μL of the diluted compound were mixed with 5 μL tracer working solution (e.g. 60 nM tracer 236 in kinase buffer for CDK2/Cyclin A) and 5 μL CDK/Cyclin/Anti-GST-AB-working solution (e.g. 15 nM CDK2/Cyclin A, 1:250 dilution of Anti-GST-AB in kinase buffer) in a well of a small volume 384 well plate (Corning Incorporated, Corning, N.Y., USA; order no. 3673). The tracer concentration was adjusted to its dissociation constant (Kd) for the CDK/Cyclin, which was 30 nM for CDK2/Cyclin A, CDK7/Cyclin H and CDK9/Cyclin T1, 20 nM for CDK8/Cyclin C, and 35 nM for CDK9/Cyclin K. For negative controls, in each well 5 μL of DMSO working solution (3% DMSO diluted in kinase buffer) was mixed with 5 μL Anti-GST-AB working solution (e.g. 1:250 dilution of Anti-GST-AB in kinase buffer for CDK2/Cyclin A) and 5 μL Tracer working solution (e.g. 60 nM Tracer 236 in kinase buffer for CDK2/Cyclin A). For positive controls, in each well 5 μL of DMSO working solution (3% DMSO diluted in kinase buffer) was mixed with 5 μL CDK/Cyclin/Anti-GST-AB-working solution: (e.g. 15 nM CDK2/Cyclin A, 1:250 dilution of Anti-GST-AB in kinase buffer) and 5 μL Tracer working solution (e.g. 60 nM Tracer 236 in kinase buffer for CDK2/Cyclin A). Positive and negative controls were calculated from at least 8 different sample wells. The 384 well plates were mixed in a Teleshaker plate mixer (Beckman Coulter, Brea, Calif., USA) at 2000 rpm for 40 sec, and incubated for 1 h at room temperature before reading. The FRET signal was measured at 340 nm excitation, 665 nm and 615 nm emission (for the kinase tracer and LanthaScreen Eu-AB, respectively) with an Envision spectrophotometer (Perkin Elmer, Waltham, Mass., USA) with […]. Kd values were determined from the sigmoidal dose response curves with the software Quattro Workflow (Quattro GmbH, Munich, Germany).

CDK9/Cyclin T1 = target: T2, CDK9/Cyclin T1 (Homo sapiens, UniProt P50750); assay: LanthaScreen Eu Kinase Binding Assay, CDK9/Cyclin T1; settings: tracer 236, read-out: CDK9/Cyclin T1 (activity range), Kd
T2 construct: His; purchased Invitrogen
T2 sequence (P50750 whole entry): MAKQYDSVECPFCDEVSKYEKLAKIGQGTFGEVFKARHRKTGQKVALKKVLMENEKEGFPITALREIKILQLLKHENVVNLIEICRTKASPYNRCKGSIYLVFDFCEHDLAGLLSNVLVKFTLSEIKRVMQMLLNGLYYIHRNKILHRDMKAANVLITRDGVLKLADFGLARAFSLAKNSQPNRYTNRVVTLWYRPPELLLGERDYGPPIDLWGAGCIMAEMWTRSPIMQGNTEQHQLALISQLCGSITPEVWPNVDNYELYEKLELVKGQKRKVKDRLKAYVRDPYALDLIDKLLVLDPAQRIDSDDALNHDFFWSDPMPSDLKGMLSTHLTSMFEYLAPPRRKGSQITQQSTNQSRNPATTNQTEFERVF
T2 sequence (O60563 whole entry partner): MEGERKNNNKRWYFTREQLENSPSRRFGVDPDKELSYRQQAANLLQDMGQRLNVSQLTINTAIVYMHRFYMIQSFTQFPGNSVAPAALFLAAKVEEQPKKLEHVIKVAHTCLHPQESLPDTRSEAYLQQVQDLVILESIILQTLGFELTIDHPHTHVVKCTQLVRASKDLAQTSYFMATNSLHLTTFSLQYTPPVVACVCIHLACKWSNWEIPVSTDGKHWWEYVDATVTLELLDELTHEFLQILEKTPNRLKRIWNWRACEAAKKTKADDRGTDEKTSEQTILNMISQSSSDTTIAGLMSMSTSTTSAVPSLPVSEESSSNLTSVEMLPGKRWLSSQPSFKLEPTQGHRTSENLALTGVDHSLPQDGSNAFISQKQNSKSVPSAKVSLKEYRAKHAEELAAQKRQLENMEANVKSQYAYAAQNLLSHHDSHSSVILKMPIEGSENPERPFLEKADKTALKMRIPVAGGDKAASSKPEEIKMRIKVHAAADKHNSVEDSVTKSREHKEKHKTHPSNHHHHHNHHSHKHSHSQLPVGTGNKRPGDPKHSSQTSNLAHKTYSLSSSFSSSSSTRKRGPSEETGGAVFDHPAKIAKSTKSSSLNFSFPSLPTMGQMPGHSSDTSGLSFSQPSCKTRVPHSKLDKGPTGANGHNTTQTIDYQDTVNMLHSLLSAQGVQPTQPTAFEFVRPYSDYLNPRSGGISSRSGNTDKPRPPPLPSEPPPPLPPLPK
Procedure: as §1, §2

CDK7/CyclinH/MAT1 = target: T3, CDK7/CyclinH/MAT1 (Homo sapiens, UniProt P50613); assay: LanthaScreen Eu Kinase Binding Assay, CDK7; settings: tracer 236, read-out: CDK7 (activity range), Kd
T3 construct: His; purchased Carna Biosciences
T3 sequence (P50613 whole entry): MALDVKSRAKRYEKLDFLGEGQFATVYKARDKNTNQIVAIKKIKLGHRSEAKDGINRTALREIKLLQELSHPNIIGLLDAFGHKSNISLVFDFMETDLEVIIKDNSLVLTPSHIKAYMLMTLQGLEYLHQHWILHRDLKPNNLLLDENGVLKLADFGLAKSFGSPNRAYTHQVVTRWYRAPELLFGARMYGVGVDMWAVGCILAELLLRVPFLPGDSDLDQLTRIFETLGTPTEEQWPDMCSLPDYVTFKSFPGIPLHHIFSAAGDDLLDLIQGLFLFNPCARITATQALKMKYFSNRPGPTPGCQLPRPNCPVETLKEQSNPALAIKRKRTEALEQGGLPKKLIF
T3 sequence (P51946 whole entry partner): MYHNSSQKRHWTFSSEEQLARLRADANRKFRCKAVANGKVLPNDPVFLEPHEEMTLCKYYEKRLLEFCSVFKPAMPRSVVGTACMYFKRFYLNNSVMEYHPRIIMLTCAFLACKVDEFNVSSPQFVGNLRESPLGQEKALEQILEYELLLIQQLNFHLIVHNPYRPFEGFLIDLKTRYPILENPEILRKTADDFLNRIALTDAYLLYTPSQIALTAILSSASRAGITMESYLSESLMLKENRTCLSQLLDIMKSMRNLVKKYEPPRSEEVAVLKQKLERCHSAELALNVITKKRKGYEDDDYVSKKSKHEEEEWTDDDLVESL
T3 sequence (P51948 whole entry partner): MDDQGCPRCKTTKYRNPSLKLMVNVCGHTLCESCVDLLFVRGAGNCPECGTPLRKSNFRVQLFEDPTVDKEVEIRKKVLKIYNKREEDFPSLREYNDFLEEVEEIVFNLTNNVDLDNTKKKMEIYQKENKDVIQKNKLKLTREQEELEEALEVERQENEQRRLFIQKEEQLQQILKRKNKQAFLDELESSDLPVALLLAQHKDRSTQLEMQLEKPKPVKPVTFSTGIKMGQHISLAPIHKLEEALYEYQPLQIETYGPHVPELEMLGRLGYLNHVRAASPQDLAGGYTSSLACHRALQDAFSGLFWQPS
Procedure: as §1, §2

T1 sequence (P50750 whole entry): as the sequence (P50750 whole entry) above
T1 sequence (O75909 1-357 isoform O75909-1 partner): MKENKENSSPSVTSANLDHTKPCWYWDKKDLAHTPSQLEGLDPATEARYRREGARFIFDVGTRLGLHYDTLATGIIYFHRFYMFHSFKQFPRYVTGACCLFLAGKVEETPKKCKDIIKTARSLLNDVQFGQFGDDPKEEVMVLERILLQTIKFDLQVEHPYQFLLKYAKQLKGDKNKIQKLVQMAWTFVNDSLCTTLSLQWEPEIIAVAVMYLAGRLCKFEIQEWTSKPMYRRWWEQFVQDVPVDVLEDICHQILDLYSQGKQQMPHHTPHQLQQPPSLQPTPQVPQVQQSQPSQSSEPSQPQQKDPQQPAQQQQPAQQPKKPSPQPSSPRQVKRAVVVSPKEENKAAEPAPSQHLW

SMILES | Kd (CDK9/Cyclin K) [µM] | Kd (CDK9/Cyclin T1) [µM] | Kd (CDK7/CyclinH/MAT1) [µM]
CC(C)(C)OC(=O)NCC1CCCCN1c1ncnc(Nc2cccc(CS(N)(=O)=O)c2)n1 (racemic) [Compound B7, rac-tert-Butyl[(1-(4-((3-(Sulfamoylmethyl)phenyl)amino)-1,3,5-triazin-2-yl)piperidine-2-yl)methyl]carbamate] | > 10 | > 10 | > 10
NS(=O)(=O)Cc1cccc(Nc2ncnc(N3CCNCC3CO)n2)c1 (racemic) [Compound B13, rac-3-[(4-(2-(Hydroxymethyl)piperazin-1-yl)-1,3,5-triazin-2-yl)amino]benzenemethanesulfonamide] | > 10 | > 10 | –
NS(=O)(=O)Cc1cccc(Nc2ncnc(N3CCNCC3)n2)c1 [Compound B11, 3-[(4-(piperazin-1-yl)-1,3,5-triazin-2-yl)amino]benzenemethane sulfonamide] | > 10 | > 10 | > 10
CN1CCN(c2ncnc(Nc3cccc(CS(N)(=O)=O)c3)n2)CC1 [Compound B12, 3-[(4-(4-Methylpiperazin-1-yl)-1,3,5-triazin-2-yl)amino]-benzenemethanesulfonamide] | > 10 | > 10 | > 10
NS(=O)(=O)Cc1cccc(Nc2ncnc(N3CCCC3)n2)c1 [Compound B14, 3-[(4-(Pyrrolidin-1-yl)-1,3,5-triazin-2-yl)amino]benzenemethane sulfonamide] | 1 to 10 | 0.1 to 1 | > 10
C[C@@H]1CCCN1c1ncnc(Nc2cccc(CS(N)(=O)=O)c2)n1 [Compound B15, (R)-3-[(4-(2-Methylpyrrolidin-1-yl)-1,3,5-triazin-2-yl)amino]-benzenemethanesulfonamide] | 1 to 10 | 0.1 to 1 | > 10
NS(=O)(=O)Cc1cccc(Nc2ncnc(N3CCC[C@H]3C(F)(F)F)n2)c1 [Compound B16, (S)-3-[(4-(2-(Trifluoromethyl)pyrrolidin-1-yl)-1,3,5-triazin-2-yl)amino]-benzenemethanesulfonamide] | 1 to 10 | 0.1 to 1 | > 10
COC[C@H]1CC[C@H](COC)N1c1ncnc(Nc2cccc(CS(N)(=O)=O)c2)n1 [Compound B19, 3-[(4-((2R,5R)-Bis(methoxymethyl)pyrrolidin-1-yl)-1,3,5-triazin-2-yl)amino]benzenemethanesulfonamide] | > 10 | > 10 | > 10
COC[C@@H]1CC[C@@H](COC)N1c1ncnc(Nc2cccc(CS(N)(=O)=O)c2)n1 [Compound B20] | > 10 | > 10 | > 10
COC(=O)[C@@H]1CCCN1c1ncnc(Nc2cccc(CS(N)(=O)=O)c2)n1 [Compound B22, (S)-Methyl 1-[4-((3-(Sulfamoylmethyl)phenyl)amino)-1,3,5-triazin-2-yl]pyrrolidine-2-carboxylate] | > 10 | > 10 | > 10
NC(=O)[C@H]1CCCN1c1ncnc(Nc2cccc(CS(N)(=O)=O)c2)n1 [Compound B23, (R)-1-[4-((3-(Sulfamoylmethyl)phenyl)amino)-1,3,5-triazin-2-yl]pyrrolidine-2-carboxamide] | > 10 | > 10 | > 10
NS(=O)(=O)Cc1cccc(Nc2ncnc(N3CCC[C@@H]3COc3ccccc3)n2)c1 [Compound B28, (R)-3-[(4-(2-(Phenoxymethyl)pyrrolidin-1-yl)-1,3,5-triazin-2-yl)amino]-benzenemethanesulfonamide] | 1 to 10 | 1 to 10 | > 10
NS(=O)(=O)Cc1cccc(Nc2ncnc(N3CCC[C@@H]3CNc3ccccc3)n2)c1 [Compound B29, (R)-3-[(4-(2-(Phenylamino-methyl)pyrrolidin-1-yl)-1,3,5-triazin-2-yl)amino]benzenemethanesulfonamide] | 1 to 10 | 1 to 10 | > 10
NS(=O)(=O)Cc1cccc(Nc2ncnc(N3CCC[C@H]3CN3CCCC3)n2)c1 [Compound B32, (S)-3-[(4-(2-((Pyrrolidin-1-yl)methyl)pyrrolidin-1-yl)-1,3,5-triazin-2-yl)amino]benzenemethanesulfonamide] | > 10 | > 10 | > 10
COC(=O)[C@H]1CCN1c1ncnc(Nc2cccc(CS(N)(=O)=O)c2)n1 [Compound B36, (R)-Methyl 1-[4-((3-(Sulfamoylmethyl)phenyl)amino)-1,3,5-triazin-2-yl]azetidine-2-carboxylate] | 1 to 10 | 1 to 10 | > 10
NS(=O)(=O)Cc1cccc(Nc2ncnc(N3CCc4ncncc4C3)n2)c1 [Compound B39, 3-[(4-(7,8-Dihydropyrido[4,3-d]pyrimidin-6(5H)-yl)-1,3,5-triazin-2-yl)amino]benzenemethanesulfonamide] | 1 to 10 | 0.1 to 1 | > 10
NS(=O)(=O)Cc1cccc(Nc2ncnc(N3CCc4ccccc4C3)n2)c1 [Compound B40, 3-[(4-(3,4-Dihydroisoquinolin-2(1H)-yl)-1,3,5-triazin-2-yl)amino]-benzenemethanesulfonamide] | 1 to 10 | 1 to 10 | > 10

Further lines, results first:

Kd (CDK9/Cyclin K) [µM] | Kd (CDK9/Cyclin T1) [µM] | Kd (CDK7/CyclinH/MAT1) [µM] | SMILES
0.1 to 1 | 0.1 to 1 | > 10 | COCC1CCCCN1c1ncnc(Nc2cccc(CS(N)(=O)=O)c2)n1 (racemic) [Compound B4, rac-3-[(4-(2-Methoxymethylpiperidin-1-yl)-1,3,5-triazin-2-yl)amino]-benzenemethanesulfonamide]
0.1 to 1 | 0.1 to 1 | > 10 | NS(=O)(=O)Cc1cccc(Nc2ncnc(N3CCCCC3c3ccccc3)n2)c1 (racemic) [Compound B9, rac-3-[(4-(2-Phenylpiperidin-1-yl)-1,3,5-triazin-2-yl)amino]-benzenemethanesulfonamide]
0.1 to 1 | 0.1 to 1 | > 10 | NS(=O)(=O)Cc1cccc(Nc2ncnc(N3CCCC3Cc3ccccc3)n2)c1 (racemic) [Compound B26, rac-3-[(4-(2-Benzylpyrrolidin-1-yl)-1,3,5-triazin-2-yl)amino]-benzenemethanesulfonamide]
1 to 10 | 1 to 10 | > 10 | NS(=O)(=O)Cc1cccc(Nc2ncnc(N3CCCC3CCc3ccccc3)n2)c1 (racemic) [Compound B27, rac-3-[(4-(2-(2-Phenylethyl)pyrrolidin-1-yl)-1,3,5-triazin-2-yl)amino]-benzenemethanesulfonamide]
0.1 to 1 | 0.1 to 1 | > 10 | NS(=O)(=O)Cc1cccc(Nc2ncnc(N3CCC3c3ccccc3)n2)c1 (racemic) [Compound B37, rac-3-[(4-(2-Phenylazetidin-1-yl)-1,3,5-triazin-2-yl)amino]-benzenemethanesulfonamide]
0.1 to 1 | 0.1 to 1 | > 10 | NS(=O)(=O)Cc1cccc(Nc2ncnc(N3CCC(F)(F)CC3)n2)c1 [Compound B2, 3-[(4-(4,4-Difluoropiperidin-1-yl)-1,3,5-triazin-2-yl)amino]-benzenemethanesulfonamide]
0.1 to 1 | 0.1 to 1 | > 10 | NS(=O)(=O)Cc1cccc(Nc2ncnc(N3CCCC(F)(F)C3)n2)c1 [Compound B3, 3-[(4-(3,3-Difluoropiperidin-1-yl)-1,3,5-triazin-2-yl)amino]-benzenemethanesulfonamide]
0.1 to 1 | < 0.1 | > 10 | COC(=O)[C@H]1CCCCN1c1ncnc(Nc2cccc(CS(N)(=O)=O)c2)n1 [Compound B6, (R)-Methyl 1-[4-((3-(Sulfamoylmethyl)phenyl)amino)-1,3,5-triazin-2-yl]piperidine-2-carboxylate]
